Reference: patent US9902725B2, “Heterocyclic derivatives as RORgamma modulators” (GENFIT, priority 2014, dated 2018)

Each compound was assayed against T1, RORγt ligand-binding domain (RORγt-LBD) (Homo sapiens, UniProt P51449) (assay: Time-resolved FRET (TR-FRET) RORγt coactivator assay). Details: GST-RORγ-LBD, biotinylated RIP140 peptide, coactivator displacement.
T1 construct: 20 nM recombinantly expressed RORγ-LBD fused to GST
T1 sequence (P51449 269-508 limits assumed): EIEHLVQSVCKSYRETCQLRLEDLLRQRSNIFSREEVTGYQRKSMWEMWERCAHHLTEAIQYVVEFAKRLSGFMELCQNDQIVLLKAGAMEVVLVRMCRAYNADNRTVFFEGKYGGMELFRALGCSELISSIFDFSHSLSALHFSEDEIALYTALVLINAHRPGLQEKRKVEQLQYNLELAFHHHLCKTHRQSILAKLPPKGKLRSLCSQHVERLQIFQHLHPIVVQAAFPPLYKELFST
Format: biochemical

SMILES	IC50 [µM]
CC(C)NC(=O)CCc1c[nH]c2ccc(CC(=O)NC(c3ccccc3)c3ccccc3N3CCCCC3)cc12 (stereo not drawn) [compound 118, 3-{5-[({phenyl[2-(piperidin-1-yl)phenyl]methyl}carbamoyl)methyl]-1H-indol-3-yl}-N-(propan-2-yl)propanamide]	< 1
CN(C)Cc1ccccc1C(NC(=O)Cc1ccc2[nH]cc(CCC(=O)OC(C)(C)C)c2c1)c1ccccc1 (stereo not drawn) [compound 121, tert-butyl 3-(5-{[({2-[(dimethylamino)methyl]phenyl}(phenyl)methyl)carbamoyl]methyl}-1H-indol-3-yl)propanoate]	1 to 10
O=C(O)CCc1c[nH]c2ccc(CC(=O)NC(c3ccccc3)c3ccccc3N3CCCC(O)C3)cc12 (stereo not drawn) [compound 124, 3-{5-[({[2-(3-hydroxypiperidin-1-yl)phenyl](phenyl)methyl}carbamoyl)methyl]-1H-indol-3-yl}propanoic acid]	1 to 10
O=C(O)CCc1c[nH]c2ccc(CC(=O)NC(c3ccccc3)c3ccccc3N3CC=CCC3)cc12 (stereo not drawn) [compound 128, 3-{5-[({phenyl[2-(1,2,3,6-tetrahydropyridin-1-yl)phenyl]methyl}carbamoyl)methyl]-1H-indol-3-yl}propanoic acid]	< 1
O=C(O)CCc1c[nH]c2ccc(CC(=O)NC3(c4ccccc4N4CCCC4)CCCC3)cc12 [compound 130, 3-{5-[({1-[2-(pyrrolidin-1-yl)phenyl]cyclopentyl}carbamoyl)methyl]-1H-indol-3-yl}propanoic acid]	< 1
Cc1ccc(C(NC(=O)Cc2ccc3[nH]cc(CCC(=O)O)c3c2)c2ncccn2)c(N2CCCCC2)c1 (stereo not drawn) [compound 132, 3-{5-[({[4-methyl-2-(piperidin-1-yl)phenyl](pyrimidin-2-yl)methyl}carbamoyl)methyl]-1H-indol-3-yl}propanoic acid]	< 1
Cc1ccc(C(CC(C)C)NC(=O)Cc2ccc3[nH]cc(CCC(=O)O)c3c2)c(N(C)C)c1 (stereo not drawn) [compound 134, 3-{5-[({1-[2-(dimethylamino)-4-methylphenyl]-3-methylbutyl}carbamoyl)methyl]-1H-indol-3-yl}propanoic acid]	< 1
Cc1cnc(C(NC(=O)Cc2ccc3[nH]cc(CCC(=O)O)c3c2)c2ccccc2N2CCCCC2)s1 (stereo not drawn) [compound 154, 3-[5-({[(5-methyl-1,3-thiazol-2-yl)[2-(piperidin-1-yl)phenyl]methyl]carbamoyl}methyl)-1H-indol-3-yl]propanoic acid]	< 1
Cc1ncc(C(NC(=O)Cc2ccc3[nH]cc(CCC(=O)O)c3c2)c2ccccc2N2CCCCC2)s1 (stereo not drawn) [compound 156, 3-[5-({[(2-methyl-1,3-thiazol-5-yl)[2-(piperidin-1-yl)phenyl]methyl]carbamoyl}methyl)-1H-indol-3-yl]propanoic acid]	1 to 10
Cc1ccc(C(NC(=O)Cc2ccc3[nH]cc(CCC(=O)O)c3c2)C2CC2)c2ccccc12 (stereo not drawn) [compound 164, 3-[5-({[cyclopropyl(4-methylnaphthalen-1-yl)methyl]carbamoyl}methyl)-1H-indol-3-yl]propanoic acid]	< 1
O=C(O)Cc1c[nH]c2ccc(CC(=O)NC(c3ccccc3)c3cc(Cl)ccc3N3CCCCC3)cc12 (stereo not drawn) [compound 166, 2-{5-[({[5-chloro-2-(piperidin-1-yl)phenyl](phenyl)methyl}carbamoyl)methyl]-1H-indol-3-yl}acetic acid]	1 to 10
O=C(O)CCc1c[nH]c2ccc(CC(=O)NC(c3ccccc3)c3cccc4cc[nH]c34)cc12 (stereo not drawn) [compound 168, 3-[5-({[1H-indol-7-yl(phenyl)methyl]carbamoyl}methyl)-1H-indol-3-yl]propanoic acid]	1 to 10
Cn1ccc2cccc(C(NC(=O)Cc3ccc4[nH]cc(CCC(=O)O)c4c3)c3ccccc3)c21 (stereo not drawn) [compound 170, 3-[5-({[(1-methyl-1H-indol-7-yl)(phenyl)methyl]carbamoyl}methyl)-1H-indol-3-yl]propanoic acid]	< 1
Cc1cccc(CC(NC(=O)Cc2ccc3[nH]cc(CCC(=O)O)c3c2)c2ccccc2N2CCCCC2)c1 (stereo not drawn) [compound 176, 3-[5-({[2-(3-methylphenyl)-1-[2-(piperidin-1-yl)phenyl]ethyl]carbamoyl}methyl)-1H-indol-3-yl]propanoic acid]	1 to 10
CC(C)CC(NC(=O)Nc1cnc2[nH]cc(CCC(=O)O)c2c1)c1ccccc1N1CCCCC1 (stereo not drawn) [compound 178, 3-{5-[({3-methyl-1-[2-(piperidin-1-yl)phenyl]butyl}carbamoyl)amino]-1H-pyrrolo[2,3-b]pyridin-3-yl}propanoic acid]	10 to 30
O=C(O)CCc1c[nH]c2ccc(CC(=O)NC(c3ccccc3)c3ccccc3N3CCC(F)(F)CC3)cc12 (stereo not drawn) [compound 180, 3-{5-[({[2-(4,4-difluoropiperidin-1-yl)phenyl](phenyl)methyl}carbamoyl)methyl]-1H-indol-3-yl}propanoic acid]	1 to 10
CC(C)CC(NC(=O)Cc1ccc2[nH]cc(CCC(=O)O)c2c1)c1ccc(Br)cc1N1CCCC1 (stereo not drawn) [compound 182, 3-{5-[({1-[4-bromo-2-(pyrrolidin-1-yl)phenyl]-3-methylbutyl}carbamoyl)methyl]-1H-indol-3-yl}propanoic acid]	< 1

SMILES	IC50 [µM]
Cc1ccc(C(NC(=O)Cc2ccc3[nH]cc(CCC(=O)O)c3c2)c2ccccc2)c(N)c1 (stereo not drawn) [compound 184, 3-[5-({[(2-amino-4-methylphenyl)(phenyl)methyl]carbamoyl}methyl)-1H-indol-3-yl]propanoic acid]	1 to 10
O=C(O)CCc1c[nH]c2ccc(CC(=O)NC(CC3CCOCC3)c3ccccc3N3CCCCC3)cc12 (stereo not drawn) [compound 190, 3-[5-({[2-(oxan-4-yl)-1-[2-(piperidin-1-yl)phenyl]ethyl]carbamoyl}methyl)-1H-indol-3-yl]propanoic acid]	< 1
CC(C)CC(NC(=O)Cc1ccc2[nH]cc(CC(=O)O)c2c1)c1ccccc1N1CCCCC1 (stereo not drawn) [compound 194, 2-{5-[({3-methyl-1-[2-(piperidin-1-yl)phenyl]butyl}carbamoyl)methyl]-1H-indol-3-yl}acetic acid]	1 to 10
O=C(O)CCc1c[nH]c2ccc(CC(=O)NC(c3ccccc3)c3ccccc3N3CCOCC3)cc12 (stereo not drawn) [compound 196, 3-{5-[({[2-(morpholin-4-yl)phenyl](phenyl)methyl}carbamoyl)methyl]-1H-indol-3-yl}propanoic acid]	1 to 10
CNc1cc(C)ccc1C(NC(=O)Cc1ccc2[nH]cc(CCC(=O)O)c2c1)c1ccccc1 (stereo not drawn) [compound 204, 3-{5-[({[4-methyl-2-(methylamino)phenyl](phenyl)methyl}carbamoyl)methyl]-1H-indol-3-yl}propanoic acid]	< 1
O=C(Cc1ccc2[nH]cc(C(=O)O)c2c1)NC(c1ccccc1)c1ccccc1N1CCCCC1 (stereo not drawn) [compound 206, 1-(2-{[2-(3-carboxy-1H-indol-5-yl)acetamido](phenyl)methyl}phenyl)piperidin-1-ium chloride]	1 to 10
Cc1ccc(C(NC(=O)Cc2ccc3[nH]cc(C(=O)O)c3c2)c2ccccc2)c(Br)c1 (stereo not drawn) [compound 207, 5-({[(2-bromo-4-methylphenyl)(phenyl)methyl]carbamoyl}methyl)-1H-indole-3-carboxylic acid]	1 to 10
O=C(O)CCC(=O)c1c[nH]c2ccc(CC(=O)NC(c3ccccc3)c3ccccc3N3CCCCC3)cc12 (stereo not drawn) [compound 213, 4-oxo-4-{5-[({phenyl[2-(piperidin-1-yl)phenyl]methyl}carbamoyl)methyl]-1H-indol-3-yl}butanoic acid]	< 1
O=C(O)CCCC(=O)c1c[nH]c2ccc(CC(=O)NC(c3ccccc3)c3ccccc3N3CCCCC3)cc12 (stereo not drawn) [compound 215, 5-oxo-5-{5-[({phenyl[2-(piperidin-1-yl)phenyl]methyl}carbamoyl)methyl]-1H-indol-3-yl}pentanoic acid]	< 1
Cc1ccc(C(NC(=O)Cc2ccc3[nH]cc(CCC(=O)O)c3c2)c2ccccc2)c2[nH]ccc12 (stereo not drawn) [compound 229, 3-[5-({[(4-methyl-1H-indol-7-yl)(phenyl)methyl]carbamoyl}methyl)-1H-indol-3-yl]propanoic acid]	1 to 10
N=C(N)NC(=O)CCc1c[nH]c2ccc(CC(=O)NC(c3ccccc3)c3ccccc3N3CCCCC3)cc12 (stereo not drawn) [compound 235, 1-{2-[(2-{3-[2-(carbamimidoylcarbamoyl)ethyl]-1H-indol-5-yl}acetamido)(phenyl)methyl]phenyl}piperidin-1-ium chloride]	1 to 10
O=C(O)CCc1n[nH]c2ccc(CC(=O)NC(c3ccccc3)c3ccccc3N3CCCCC3)cc12 (stereo not drawn) [compound 237, 3-{5-[({phenyl[2-(piperidin-1-yl)phenyl]methyl}carbamoyl)methyl]-1H-indazol-3-yl}propanoic acid]	< 1
CC(C)CC(NC(=O)Cc1ccc2[nH]cc(CCC(=O)O)c2c1)c1ccccc1OC(C)C (stereo not drawn) [compound 241, 3-{5-[({3-methyl-1-[2-(propan-2-yloxy)phenyl]butyl}carbamoyl)methyl]-1H-indol-3-yl}propanoic acid]	< 1
CCOc1ccccc1C(CC(C)C)NC(=O)Cc1ccc2[nH]cc(CCC(=O)O)c2c1 (stereo not drawn) [compound 243, 3-[5-({[1-(2-ethoxyphenyl)-3-methylbutyl]carbamoyl}methyl)-1H-indol-3-yl]propanoic acid]	< 1
CC(C)CCC(NC(=O)Cc1ccc2[nH]cc(CCC(=O)O)c2c1)c1ccccc1N1CCCCC1 (stereo not drawn) [compound 245, 3-{5-[({4-methyl-1-[2-(piperidin-1-yl)phenyl]pentyl}carbamoyl)methyl]-1H-indol-3-yl}propanoic acid]	< 1
CCOc1ccc(C(NC(=O)Cc2ccc3[nH]cc(CCC(=O)O)c3c2)c2ccccc2)c(OCC)c1 (stereo not drawn) [compound 247, 3-[5-({[(2,4-diethoxyphenyl)(phenyl)methyl]carbamoyl}methyl)-1H-indol-3-yl]propanoic acid]	< 1
